For one assay, the system named is Candida albicans. The assay is described as follows: Antimycotic activity (human), growth on Sabouraud dextrose agar. Type of assay: cell-based. Details: key to the marks not given beside the values. The text has this: Control (full growth): ++++
The subject of assay [1] is 4 mycoplasma (M. gallisepticum, capricolum, M. hominis, A. laidlawii). In words: organism not typed. Type of assay: cell-based. To be noted: read-out: 50% inhibition of growth in liquid medium, concentration.
The next assay concerns L. tropica amastigotes. The assay is described as follows: L. tropica amastigotes in peritoneal exudate cells in Mc Coy's medium in vitro at 37° C. The assay is classed as cell-based. The procedure: (§1) A. Scoring of drug activity:
(§2) a. amastigotes in peritoneal exudate cells in Mc Coy's medium in vitro at 37° C.
+++=clearance of all parasites in 24 hrs
++=clearance of all parasites in 48 hrs
+=clearance of all parasites in 72 hrs
±=partial clearance of parasites in 72 hours or more
-=no activity against parasites.

A further assay deals with Trypanosoma. The assay is described as follows: Trypanosoma in RPMI medium in vitro at 37° C. Conditions: for Trypanosoma in vitro, activity score: RPMI medium, 37° C.; for active against Trypanosoma: summary. Type of assay: cell-based. On the procedure:
Trypanosoma in RPMI medium in vitro at 37° C. Scoring as in b.

Another assay relates to Leishmania. In words: Anti Leishmania tests (amastigotes and promastigotes), summary. Type of assay: cell-based, L. tropica. The procedure: as §1, §2
(§3) b. promastigotes in Mc Coy's medium in vitro at 27° C.

The next assay concerns L. tropica promastigotes. The assay is described as follows: L. tropica promastigotes in Mc Coy's medium in vitro at 27° C. Type of assay: cell-based. On the procedure:
as §1, §3
+++=no viable parasites after 24 hours
++=no viable parasites after 48 hours
+=no viable parasites after 72 hours
±=no viable parasites after 96 hours
-=viable parasites after 120 hours.

Assay [2] relates to haloperidol-induced catalepsy. The assay is described as follows: Antiparkinson activity: anticataleptic effect in rats (haloperidol catalepsy). To be noted: individual rats, 80 mg/kg i.p., one line per rat, in order rat 1 to rat 5. Type of assay: in vivo, Male Charles River albino rats. The procedure: Male Charles River albino rats, weighing 200-250 g, were used. Catalepsy was produced by haloperidol, 5 mg/kg i.p. The animals were placed with their front paws on a horizontal bar, about 10 cm above the ground, and animals were considered cataleptic if not changing posture for at least 30 sec. Cataleptic animals were injected l.p. with one of the drugs at a dose of 40-80 mg/kg. Catalepsy was estimated again at the intervals indicated.
Male Charles River albino rats, wighing 200-250 g, were used. Catalepsy was produced by haloperidol, 5 mg/kg i.p. The animals were placed with their front paws on a horizontal bar, about 10 cm above the ground, and animals were considered cataleptic if not changing posture for at least 30 sec. Cataleptic animals were injected i.p. with one of the drugs at a dose of 40-80 mg/kg. catalepsy was estimated again at the intervals indicated.

Assay [3] relates to stereotyped behaviour (sniffing, biting, repetitive head movement). The assay is described as follows: Stereotyped behaviour in mice. The assay is classed as in vivo, Male ICR albino mice. More on the design: stereotyped behaviour score / Total Score (stereotyped behaviour) / Mean Score (stereotyped behaviour): scale not given here. To be noted: 50 mg/kg i.p. The procedure: Male ICR albino mice weighing 25-30 g were put in cages with a metal grid floor, 4 in each cage. Drugs were injected intraperitoneally and stereotyped behaviour (sniffing, biting, repetitive head movement) was evaluated every 30 min.

In the next assay the test system is Trichophyton rubrum. In words: Antimycotic activity (human), growth on Sabouraud dextrose agar. Conditions: 10 μg/ml. Details: key to the marks not given beside the values.
Assay [4] has as its system Trichophyton mentagrophytes. The description is as above. Details: key to the marks not given beside the values. To be noted: 10 μg/ml.
In a further assay the test system is HSV-1 (Herpes Simplex). The assay is described as follows: Inhibition test on HSV replication. The assay is classed as cell-based. Conditions: Human alphaherpesvirus 1, BSC-1 cells, 10 PFU/cell. The text has this:
|INHIBITION TEST ON HSV REPLICATION |Cells |BSC-1 (Green monkey Kidney) |Virus |HSV-1 (Herpes Simplex) |Inoculum |10 PFU/cell |Medium |DMEM + 10% C.S. | Herpes | J. Levitt & Y. Becker | Virology 31, 129-134 (1967) | **% Inhibition of control infected for some time with same virus PFV with | no inhibition.

SMILES strings stand for the structures. Several values for one entry are separate records, joined by “and”; a condition that tells them apart may be missing. Identical values can stand only once. Counter-ions that a name gives are not always drawn.

As for `CN(N)CC1C2CC3CC(C2)CC1C3` (stereo not drawn) [Example 16, 1-Methyl-1-(adamant-2'-ylmethyl)hydrazine hydrochloride], the “growth of C. albicans” value in the assay with Candida albicans (10 μg/ml) and with Candida albicans (50 μg/ml) was “++++” in each case.
For the compound `c1ccc(CNNCC23CC4CC(CC(C4)C2)C3)cc1` [Example 3, 1-(Adamant-1'-ylmethyl)-2-benzylhydrazine hydrochloride], the IC50 in assay [1] was 5 to 30 µg/mL. The “growth of C. albicans” value in the assay with Candida albicans (10 μg/ml), in the assay with Candida albicans (50 μg/ml) and with Candida albicans (100 μg/ml) was “++++” each time.
For the compound `NNCC12CC3CC(CC(C3)C1)C2` [Example 14, (Adamant-1-ylmethyl)hydrazine hydrochloride], the “Leishmania amastigote, activity score” value was “± (partial clearance of parasites in 72 hours or more)” in the assay on L. tropica amastigotes (10 μg) and “++ (clearance of all parasites in 48 hrs)” in the assay with L. tropica amastigotes (100 μg). The “Trypanosoma in vitro, activity score” value in the assay with Trypanosoma (10 μg) and in the assay with Trypanosoma (100 μg) was “+++ (no viable parasites after 24 hours)” each time. Further, in the assay with Trypanosoma, the “active against Trypanosoma” value is recorded as “active”. The “active against Leishmania” value with Leishmania is recorded as “active”.
`CN(N)CC12CC3CC(CC(C3)C1)C2` [Example 15, 1-Methyl-1-(adamant-1'-ylmethyl)hydrazine hydrochloride hydrate]: the “Leishmania promastigote, activity score” value in the assay with L. tropica promastigotes (10 μg) is “- (viable parasites after 120 hours.)”; with L. tropica promastigotes (100 μg), “+++ (no viable parasites after 24 hours)”. The “active against Leishmania” value in the assay with Leishmania is reported as “active”.
For the compound `c1ccc(CCNNCC23CC4CC(CC(C4)C2)C3)cc1` [Example 25, 1-(Adamant-1'-ylmethyl)-2-phenethylhydrazine dihydrate], the IC50 in assay [1] is 5 to 30 µg/mL.
`NC12CC3CC(CC(C3)C1)C2` [Symmetrel, reference compound]: the anticataleptic effect in assay [2] is 0/4 and 2/4 and 3/4 (3×). Moreover, the “Total Score (stereotyped behaviour)” value in assay [3] (0-240 min, one line per mouse, in order Mouse 1 to Mouse 4, 50 mg/kg) was 17 (3×) and 13. The stereotyped behaviour score in [3] (0 min, one line per mouse, in order Mouse 1 to Mouse 4) is 0; in assay [3] (30 min, one line per mouse, in order Mouse 1 to Mouse 4), 1; in [3] (45 min, one line per mouse, in order Mouse 1 to Mouse 4), 1; in assay [3] (60 min, one line per mouse, in order Mouse 1 to Mouse 4, 50 mg/kg) it was 2 (2×) and 1 (2×); in assay [3] (90 min, one line per mouse, in order Mouse 1 to Mouse 4, 50 mg/kg), 1 (3×) and 2; in assay [3] (120 min, one line per mouse, in order Mouse 1 to Mouse 4), 2. For the same compound, the stereotyped behaviour score in assay [3] (135 min, one line per mouse, in order Mouse 1 to Mouse 4) was 2; in [3] (150 min, one line per mouse, in order Mouse 1 to Mouse 4), 2; in assay [3] (180 min, one line per mouse, in order Mouse 1 to Mouse 4), 2; in [3] (210 min, one line per mouse, in order Mouse 1 to Mouse 4, 50 mg/kg), 2 (3×) and 1; in [3] (240 min, one line per mouse, in order Mouse 1 to Mouse 4, 50 mg/kg), 2 (3×) and 0. Besides, the “Mean Score (stereotyped behaviour)” value in assay [3] (mean of 4 mice) is recorded as 16.
With `C1CCN(NCC23CC4CC(CC(C4)C2)C3)CC1` [Example 8, 1-(Adamant-1'-ylmethylamino)piperidine hydrochloride], in assay [1], the IC50 was in the range of 5 to 30 µg/mL. Moreover, the “growth of C. albicans” value in the assay with Candida albicans (10 μg/ml), with Candida albicans (50 μg/ml) and in the assay with Candida albicans (100 μg/ml) was “++++” throughout. Moreover, the “growth of T. rubrum” value in the assay on Trichophyton rubrum is “++++”. In assay [4], the “growth of T. mentagrophytes” value is “++++”.
As to `CNNCC12CC3CC(CC(C3)C1)C2` [Example 1, 1-(Adamant-1'-ylmethyl)-2-methylhydrazine hydrochloride], the “Leishmania amastigote, activity score” value in the assay with L. tropica amastigotes (10 μg) and in the assay with L. tropica amastigotes (100 μg) was “± (partial clearance of parasites in 72 hours or more)” throughout. For the same compound, the “Leishmania promastigote, activity score” value is recorded as “- (viable parasites after 120 hours.)” with L. tropica promastigotes (10 μg) and “+++ (no viable parasites after 24 hours)” in the assay with L. tropica promastigotes (100 μg). The “Trypanosoma in vitro, activity score” value in the assay on Trypanosoma (10 μg) is “± (no viable parasites after 96 hours)”; in the assay on Trypanosoma (100 μg) it was “+++ (no viable parasites after 24 hours)”. In addition, in the assay with Trypanosoma, the “active against Trypanosoma” value was “active”. In addition, the “active against Leishmania” value in the assay with Leishmania is “active”.
`CC(C)N(N)CC12CC3CC(CC(C3)C1)C2` [Example 38, 1-(Adamant-1'-ylmethyl)-1-isopropylhydrazine hydrochloride]: the IC50 in [1] is 5 to 30 µg/mL. Also, the “growth of C. albicans” value with Candida albicans (10 μg/ml), in the assay on Candida albicans (50 μg/ml) and in the assay on Candida albicans (100 μg/ml) was “++++” in each case. For the same compound, in the assay with Trichophyton rubrum, the “growth of T. rubrum” value is “++++”. In assay [4], the “growth of T. mentagrophytes” value was “++++”.
Consider `N=C(N)c1ccc(OCCCCCOc2ccc(C(=N)N)cc2)cc1` [Pentamidine, reference compound], for which the “Leishmania promastigote, activity score” value in the assay on L. tropica promastigotes (10 μg) and in the assay on L. tropica promastigotes (100 μg) was “+++ (no viable parasites after 24 hours)” throughout. Also, the “Trypanosoma in vitro, activity score” value is on record as “- (viable parasites after 120 hours.)” in the assay with Trypanosoma (10 μg) and “++ (no viable parasites after 48 hours)” in the assay on Trypanosoma (100 μg).
`C1CCN(NCC2C3CC4CC(C3)CC2C4)C1` (stereo not drawn) [Example 31, 1-(Adamant-2'-ylmethylamino)pyrrolidine hydrochloride] yielded an inhibition at 25 µg/mL in the assay with HSV-1 (Herpes Simplex) (25 μg/ml) of 51%. The compound also showed an inhibition at 50 µg/mL in the assay on HSV-1 (Herpes Simplex) (50 μg/ml) of 91%. This compound also came in with an inhibition at 100 µg/mL in the assay on HSV-1 (Herpes Simplex) (100 μg/ml) of 97%.

The term inhibition denotes the change of the read-out against control, counted positive when it falls.

These data come from US4202892A, “Biocidal methyladamantyl hydrazines and pharmaceutical compositions containing them” (Teva Pharmaceutical Industries, Ltd., priority 1977, dated 1980).
